Tested on: AH-1+CD8+ T-cells (tumor antigen-specific CD8+ T-cells)
Assay: Flow cytometry for tumor antigen-specific CD8+ T-cells in blood of CT26 tumor-bearing mice
Type: in vivo, mouse
Conditions: day 7 after UNO treatment
Method: Preparation of cancer cells for injection—Mouse colon carcinoma CT26.WT cells (ATCC, Cat no. CRL-2638) suspended in Hanks' Balanced Salt Solution (HBSS) (Biological Industries, Israel), at a concentration of 5.0×10^6 cells/ml, were freshly prepared on the day of cancer model induction. Cells were grown to 70% confluency and were harvested using trypsin (Biological Industries, Israel), and counted using a cell counter device. The cells were then centrifuged at 1,200 rpm (241×g) for 8 minutes, and the pellet was re-suspended in ice cold HBSS at 5.0×10^6 in 1 ml (5.0×10^5 cells in 100 μl solution). Cell viability was >90% as determined by trypan blue staining prior to inoculation to mice. At the point of inoculation, cells were at passage 8 at most. […]
UNO treatment—On the day of treatment, mice were anesthetized by an intra-peritoneal (i.p.) injection of 100 mg/kg ketamine and 10 mg/kg of xylazine hydrochloride solution. […] After treatment, all mice were warmed and closely monitored until complete recovery was observed. […]
Flow cytometry for tumor antigen-specific CD8+ T-cells—On day 7 after the UNO treatment, 100 μl of peripheral blood was collected by submandibular bleeding from each mouse into tubes containing 0.5M EDTA PH 8.0. […] Data was analyzed using the FlowJo software.

## [N]=O [UNO, nitric oxide]
  Systemic levels of AH-1+CD8+ T-cells vs untreated or naive mice: higher
UNO 100,000 ppm 5 min, anti-mCTLA-4 5 mg/kg i.p. twice
  AH-1+CD8+ T-cells in the blood: detected in the blood of all mice
